Read-outs that look alike come from different tables or passages of the source.
Legend:
[1] = system: A549; experiment: SRB cell growth assay, 72 h; type: cell-based, human
[2] = system: human primary colon tumors CR-LRB-009C; experiment: antitumor activity against subcutaneous CR-LRB-009C xenografts; type: in vivo
Protocol: The human primary colon carcinoma CR-LRB-009C tumor model was established by implanting (SC) small tumor fragments and was maintained in SCID female mice using serial passages.
Treatments were administered on measurable tumors. […] Mice were checked daily, and adverse clinical reactions noted.
Animal body weights included the tumor weight.
The primary efficacy end points are ΔT/ΔC, percent median regression, partial and complete regressions (PR and CR). Statistical analyses were performed on SAS system release 8.2 for SUN4 via Everstat V5 software and SAS 9.2 software. A probability less than 5% (p<0.05) was considered as significant.

[3] = system: MCF7; experiment: SRB cell growth assay, 72 h; type: cell-based, human
[4] = system: human colon carcinoma HCT 116; experiment: HCT116 tumor growth in fluorescence molecular tomography study; type: in vivo, SCID mice; details: (2b) 20 mg/kg oral daily day 11 to day 17; NS
[5] = system: DU145; experiment: SRB cell growth assay, 72 h; type: cell-based, human; details: single agent
[6] = system: panel of 81 cancer cell lines; experiment: SRB cell growth assay, 72 h, cell line panel; type: cell-based, human
[7] = system: CASKI; experiment: SRB cell growth assay, 72 h; type: cell-based, human; details: single agent
[8] = system: SKBR3; experiment: SRB cell growth assay, 72 h; type: cell-based, human
[9] = system: BT20; experiment: SRB cell growth assay, 72 h; type: cell-based, human; details: single agent
[10] = system: A673; experiment: SRB cell growth assay, 72 h; type: cell-based, human; details: single agent
[11] = system: resting Peripheral Blood Mononuclear Cells, PBMC; experiment: SRB cell growth assay, 72 h, non-proliferating cells; type: cell-based
Protocol: Cell lines were selected to represent 17 different indications with many different genetic variations and biochemical characteristics. In addition, the study included resting Peripheral Blood Mononuclear Cells, PBMC, as a model for non-proliferating cells.
Cell growth and treatment were performed in 96-well microtitre plates CELLSTAR® (Greiner Bio-One, Germany). Cells harvested from exponential phase cultures by trypsinization were plated in 150 μl of media at optimal seeding densities. The optimal seeding densities for each cell line were determined to ensure exponential growth for the duration of the experiment. All cells growing without anticancer agents were sub-confluent by the end of the treatment as determined by visual inspection. […]
After treatment, cells were precipitated by addition of 10% TCA. […] Measurement of optical density was performed at 560 nm on a Victor 2 plate reader (Perkin Elmer, Germany). […]
Using these measurements, cellular responses can be calculated for incomplete inhibition of cell growth (GI), complete inhibition of cell growth (T GI) and net loss of cells (LC) due to compound activity. […] Similar to IC90, calculated GI90 values are also reported for all compounds tested. TGI was calculated from Ti=Tz. […] It was calculated as 100×[(Ti−Tz)/Tz]=−50. […]

[12] = system: MDAMB468; experiment: SRB cell growth assay, 72 h; type: cell-based, human; details: Homo sapiens, MDA-MB-468, most sensitive, z-score <−1.5
Protocol: Cell growth and treatment were performed in 96-well microtitre plates CELLSTAR® (Greiner Bio-One, Germany). Cells harvested from exponential phase cultures by trypsinization were plated in 150 μl of media at optimal seeding densities. The optimal seeding densities for each cell line were determined to ensure exponential growth for the duration of the experiment. All cells growing without anticancer agents were sub-confluent by the end of the treatment as determined by visual inspection.
150 μl of cells, after a 24-hour pre-growth period, were treated by mixing with 50 μl of the compound containing media (resulting in a final DMSO concentration of 0.1%). The cells were allowed to grow at 37° C. for 72 hours. In addition, all experiments contained a few plates with cells that were processed for measurement immediately after the 24 hours recovery period. These plates contained information about the cell number that existed before treatment, at time zero, and served to calculate the cytotoxicity.
After treatment, cells were precipitated by addition of 10% TCA. Prior to fixation, the media was aspirated as described. After an hour of incubation at 4° C., the plates were washed two times with 400 μl of deionized water. Cells were then stained with 100 μl of a 0.08% wt/v SRB. The plates were allowed to sit for at least 30 min. and washed six times with 1% acetic acid to remove unbound stain. The plates were left to dry at room temperature and bound SRB was solubilized with 100 μl of 10 mM Tris base. Measurement of optical density was performed at 560 nm on a Victor 2 plate reader (Perkin Elmer, Germany). The SRB values for A375 and H460 cell lines were near to saturation (2.5 OD units) due to the high protein content of these cells, but not cell confluence. The measurements for these cells were performed at 520 nm instead of 560 nm.
Using these measurements, cellular responses can be calculated for incomplete inhibition of cell growth (GI), complete inhibition of cell growth (T GI) and net loss of cells (LC) due to compound activity. […] This is the drug concentration causing a 50% reduction compared to the net protein increase in control cells during the drug incubation period. In other words, GI50 is IC50 corrected for time zero. Similar to IC90, calculated GI90 values are also reported for all compounds tested. TGI was calculated from Ti=Tz. […] It was calculated as 100×[(Ti−Tz)/Tz]=−50. However, due to 72 hours treatment, low cell seeding density was required and LC50 could rarely be achieved.

[13] = system: HCT116; experiment: SRB cell growth assay, 72 h; type: cell-based, human
[14] = system: EJ28; experiment: SRB cell growth assay, 72 h; type: cell-based, human; details: single agent
[15] = system: PANC1; experiment: SRB cell growth assay, 72 h; type: cell-based, human; details: single agent
[16] = system: DLD1; experiment: SRB cell growth assay, 72 h; type: cell-based, human; details: single agent
[17] = system: human colon carcinoma HCT 116; details: for tolerability: as single agents
Protocol: Mice were over 18 g at start of treatment after an acclimatization time of at least 5 days. […] The mice were housed on a 12 hours light/dark cycle.
Human colon carcinoma HCT 116 cells were purchased at American Type Culture Collection [(ATCC), Rockville, Md., USA). The HCT 116 cells were cultured in Dulbecco's modified Eagle's medium (DMEM) (Invitrogen).
The animals required to begin a given experiment were pooled and implanted monolaterally on day 0. Treatments were administered on measurable tumors. The solid tumors were allowed to grow to the desired volume range (animals with tumors not in the desired range were excluded). The mice were then pooled and unselectively distributed to the various treatment and control groups. […] The dosages are expressed in mg/kg, based on the body weight at start of therapy. Mice were checked daily, and adverse clinical reactions noted. Each group of mice was weighed as a whole daily until the weight nadir was reached. Then, groups were weighed once to thrice weekly until the end of the experiment. Tumors were measured with a caliper 2 to 3 times weekly until final sacrifice for sampling time, tumor reached 2000 mm^3 or until the animal died (whichever comes first). Solid tumor volumes were estimated from two-dimensional tumor measurements and calculated according to the following equation:
Changes in tumor volume for each treated (T) and control (C) group were calculated for each tumor by subtracting the tumor volume on the day of first treatment (staging day) from the tumor volume on the specified observation day. The median ΔT is calculated for the treated group, and the median ΔC is calculated for the control group. Then the ratio ΔT/ΔC is calculated and expressed as a percentage. The dose is considered as therapeutically active when ΔT/ΔC is lower than 40% and very active when ΔT/ΔC is lower than 10%.
The percent of tumor regression is defined as the % of tumor volume decrease in the treated group at a specified observation day compared to its volume on the first day of treatment. At a specific time point and for each animal, % regression is calculated. The median % regression is then calculated for the group using the following equation:
Partial regression: Regressions are defined as partial if the tumor volume decreases to 50% of the tumor volume at the start of treatment.
Complete regression: The CR is achieved when tumor volume=0 mm^3 (CR is considered when tumor volume cannot be recorded).

[18] = (2b) 20 mg/kg PO daily days 11-21
[19] = study 1, (2b) 30 mg/kg PO daily days 11-18
[20] = study 2, (2b) 20 mg/kg PO daily days 11-18
[21] = study 4, (2b) 20 mg/kg PO daily days 11-20

CCn1c(=O)c(-c2ccn[nH]2)cc2c(C)nc(N)nc21 [Compound (2b), 2-amino-8-ethyl-4-methyl-6-(1H-pyrazol-5-yl)pyrido[2,3-d]pyrimidin-7(8H)-one]
GI50 ([1]; Homo sapiens): 1.15 µM | z-score MSC0765 ([1]; single agent): −0.20 | Average body weight change in % per mouse at nadir [2, 18]: −7.4 (19) % | Drug death [2, 18]: 0/7 | Median ΔT/ΔC in % day 21 [2, 18]: 51% | Regressions Complete [2, 18]: 0/7 | Regressions Partial [2, 18]: 0/7 | tolerability ([2]; as single agents or used in combination): tolerated, inducing some BWL but not reaching toxicity | GI50 ([3]; Homo sapiens): 1.6 µM | z-score MSC0765 ([3]; single agent): 0.30 | ΔT/ΔC at the end of study [4]: 80% | z-score MSC0765 [5]: −0.05 | GI50 ([6]; Homo sapiens, all 81 cell lines, log 10-transformed data): 1.3 to 1.4 µM | differences in activity between sensitive and insensitive cell lines ([6]; panel): 10-20 fold | z-score MSC0765 [7]: −0.23 | GI50 ([8]; Homo sapiens, SK-BR-3, most sensitive, z-score <−1.5): < 0.5 µM | sensitivity ([8]; single agent): very sensitive | z-score MSC0765 ([8]; single agent): −2.18 | z-score MSC0765 [9]: 0.32 | z-score MSC0765 [10]: 0.96 | activity (cell growth inhibition) ([10]; up to 50 μM): non-sensitive | activity in resting (arrested) PBMC [11]: no activity | GI50 [12]: < 0.5 µM | GI50 ([13]; Homo sapiens, HCT-116, non-sensitive, z score >1.5): > 4 µM | z-score MSC0765 ([13]; single agent): 1.90 | z-score MSC0765 [14]: 1.25 | z-score MSC0765 [15]: 1.16 | z-score MSC0765 [16]: 0.81 | Average body weight change in % per mouse at nadir [17, 19]: −6.7 (18) % | Drug death [17, 19]: 0/7 | Median ΔT/ΔC in % day 18 [17, 19]: 77% | Regressions Complete [17, 19]: 0/7 | Regressions Partial [17, 19]: 1/7 | Average body weight change in % per mouse at nadir [17, 20]: −3.7 (15) % | Drug death [17, 20]: 0/7 | Median ΔT/ΔC in % day 18 [17, 20]: 71% | Regressions Complete [17, 20]: 0/7 | Regressions Partial [17, 20]: 0/7 | tolerability ([17]; study 2): well-tolerated, inducing minimal BWL | Average body weight change in % per mouse at nadir [17, 21]: −4.8 (20) % | Drug death [17, 21]: 0/10 | Regressions Complete [17, 21]: 0/10 | Regressions Partial [17, 21]: 0/10 | tolerability ([17]; study 4): well-tolerated, inducing minimal BWL

— patent US20140024653A1, “COMPOSITIONS AND METHODS FOR TREATING CANCER USING PI3K INHIBITOR AND MEK INHIBITOR” (priority 2011, published 2014)
